Columns and labels:
mice = assay: Acute toxicity in mice; assay type: in vivo
Experimental: The synthesized compound was assessed for its acute toxicity using mice sourced from the National Institute of Health in Pakistan. The mice for the experiment were categorized into several groups. Some groups were designated to receive the test samples, and another was set as a control group. […]. These compounds were first dissolved in normal saline before being administered. […]. The mice were monitored for a period of 24 h to 4 weeks following the administration of the pivalate-based Michael product. The study closely observed the mice for any irregular behavior, such as ataxia, aggressive reactions, and potential allergic symptoms, among others. Furthermore, any harmful outcomes or lethality were also recorded. These observations and recorded adverse events were compared between the group treated with the test compound and the control group. These comparisons offer valuable insights into the toxicity levels of the newly synthesized compounds [47].

COX-2 = molecular target: T1, COX-2 (Homo sapiens, UniProt P35354); assay: COX-2 inhibitory assay; assay type: biochemical
T1 construct: purchased Cayman Chemical Batch No.: G5234
T1 sequence (P35354 18-604): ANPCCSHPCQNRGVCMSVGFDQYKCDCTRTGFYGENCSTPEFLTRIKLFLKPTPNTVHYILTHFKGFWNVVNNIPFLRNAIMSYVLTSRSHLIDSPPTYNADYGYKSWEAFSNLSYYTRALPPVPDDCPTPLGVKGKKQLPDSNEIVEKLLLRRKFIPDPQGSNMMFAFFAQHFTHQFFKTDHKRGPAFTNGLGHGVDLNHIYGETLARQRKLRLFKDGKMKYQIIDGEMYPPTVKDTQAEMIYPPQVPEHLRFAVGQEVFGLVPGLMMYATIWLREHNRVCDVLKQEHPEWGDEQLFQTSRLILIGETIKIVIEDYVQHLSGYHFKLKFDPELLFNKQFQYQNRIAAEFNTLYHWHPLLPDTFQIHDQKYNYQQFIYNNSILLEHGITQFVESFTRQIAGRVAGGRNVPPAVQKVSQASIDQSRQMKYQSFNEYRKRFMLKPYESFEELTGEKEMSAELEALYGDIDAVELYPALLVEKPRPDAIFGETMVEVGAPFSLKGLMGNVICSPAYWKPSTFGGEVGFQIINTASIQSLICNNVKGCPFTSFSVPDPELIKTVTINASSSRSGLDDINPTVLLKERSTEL
Experimental: The inhibitory potential of synthesized MAK01 was assessed using the COX-2 inhibitory protocol. The process started with the preparation of a COX-2 enzyme solution with a concentration of 300 U per ml. The activation of the enzymes was achieved by taking and mixing 10 μL and 50 μL of the COX-2 enzyme solution and a co-factor solution, respectively. Once mixed, this solution needed to be chilled. The chilling process was carried out at 4 °C in an ice bath. The duration for this cooling phase was set at five to six minutes. […] It was made up of 0.1 M Tris buffer with a pH of 8.0, 1 mM of hematin, 0.9 mM of glutathione, and 0.24 mM of TMPD in a phosphate buffer. Following the initial steps, a test sample was prepared. The volume of this sample was fixed at 20 μL. The 20 μL sample was mixed with 60 μL COX-2 solution. After combining them, the sample and enzyme solution were kept at ambient temperature. The solution was allowed to rest for a duration from five to ten minutes. To start the reaction, 20 μL of 30 mM arachidonic acid was incorporated. Upon adding the acid, the solution was subjected to an incubation period. This period lasted for 15 min at a temperature of 37 °C. Post incubation, HCl was added to stop the reaction. The absorbance of this final solution was then measured. This was carried out using a UV–visible spectrophotometer at a specific 570 nm wavelength. Similarly, the above procedure was used for all the other concentrations of the test sample. The COX-2 enzyme inhibition was calculated as per the below equation. […] Using the below formula, the percent inhibition of each sample was calculated. % Inhibition=Abs. test sample−Abs. background/Abs. solvent blank−Abs. background×100
Using established protocols, the inhibitory potency of MAK01 against both COX-1 and COX-2 enzymes was assessed. This evaluation allowed for the determination of the selectivity of these new compounds. The IC50 values for both COX-1 and COX-2 were then used to calculate the selectivity index of the compound.

For `CCOC(=O)C(C)(C)C1CC(=O)N(c2ccccc2)C1=O` (centres unmarked) [MAK01, ethyl 2-(2,5-dioxo-1-phenylpyrrolidin-3-yl)-2-methylpropanoate], the Lethal dose (mice; both, mouse, in vivo, po) was ~1000 mg per kg of body weight, the Signs of toxicity (mice; mice, oral, doses higher than 1000 mg per kg) was “distress, agitation, convulsions, discomfort, and abnormal behavior” and the IC50 (COX-2) was 449 µM. For the same molecule, the COX-2 percent inhibition (COX-2; 62.5 μg/mL) was 40%, the inhibition at 62.5 µg/mL (COX-2; 62.5 μg/mL, read-out: COX-2 percent inhibition) was 40.1% and the COX-2 percent inhibition (COX-2; 125 μg/mL) was 49%. It also gave an inhibition at 125 µg/mL (COX-2; 125 μg/mL, read-out: COX-2 percent inhibition) of 49.4%, a COX-2 percent inhibition (COX-2; 250 μg/mL) of 59% and an inhibition at 250 µg/mL (COX-2; 250 μg/mL, read-out: COX-2 percent inhibition) of 58.9%. The COX-2 percent inhibition (COX-2; 500 μg/mL) was 68%, the inhibition at 500 µg/mL (COX-2; 500 μg/mL, read-out: COX-2 percent inhibition) was 67.8% and the COX-2 percent inhibition (COX-2; 1000 μg/mL) was 79%. For the same molecule, the inhibition at 1000 µg/mL (COX-2; 1000 μg/mL, read-out: COX-2 percent inhibition) was 78.7% and the “Selectivity for COX-2 compared to COX-1” value (COX-2; from IC50 values of COX-1 and COX-2) was 3 fold.

— publication PMC11597207, “Synthesis and Anti-Inflammatory and Analgesic Potentials of Ethyl 2-(2,5-Dioxo-1-Phenylpyrrolidin-3-yl)-2-Methylpropanoate” (Pharmaceuticals, 2024)
